Where “and” joins values, the source holds several entries; their conditions need not be identical. Equal entries are not always repeated.
Key:
[1] = 101.33 kPa, Liquid; for viscosity: Capillary tube (Ostwald / Ubbelohde) method
[2] = xn = mol fraction of the nth substance listed; conditions: 101.33 kPa, Liquid; for viscosity: Capillary tube (Ostwald / Ubbelohde) method

C1CCCC1 [cyclopentane]
[1]
Conditions | mass density [kg/m3] | speed of sound [m/s] | viscosity [mPa·s]
293.15 K | 744.43 | 1232 | 0.438
298.15 K | 739.47 | 1206 | 0.415
303.15 K | 734.47 | 1180 | 0.394
308.15 K | 729.42 | 1154 | 0.374
313.15 K | 724.32 | 1129 | 0.355

CCOC(=O)OCC [diethyl carbonate]
[1]
Conditions | mass density [kg/m3] | speed of sound | viscosity [mPa·s]
293.15 K | 974.8 | 1197 m/s and 1198 m/s | 0.809
298.15 K | 969.21 | 1177 m/s | 0.75
303.15 K | 963.58 | 1156 m/s and 1157 m/s | 0.702
308.15 K | 957.93 | 1136 m/s | 0.658
313.15 K | 952.26 | 1116 m/s | 0.618

CCOC(=O)OCC [diethyl carbonate] + C1CCCC1
[2], x1 = 1
Conditions | mass density [kg/m3] | speed of sound [m/s] | viscosity [mPa·s]
293.15 K | 974.8 | 1197 | 0.809
298.15 K | 969.21 | 1177 | 0.75
303.15 K | 963.58 | 1156 | 0.702
308.15 K | 957.93 | 1136 | 0.658
313.15 K | 952.26 | 1116 | 0.618

COC(=O)OC [dimethyl carbonate]
[1]
Conditions | mass density [kg/m3] | speed of sound [m/s] | viscosity [mPa·s]
293.15 K | 1069.9 | 1220 | 0.623
298.15 K | 1063.33 | 1198 | 0.584
303.15 K | 1056.71 | 1177 | 0.549
308.15 K | 1050.07 | 1155 | 0.517
313.15 K | 1043.39 | 1134 | 0.488

COC(=O)OC [dimethyl carbonate] + C1CCCC1
[2], x1 = 1
Conditions | mass density [kg/m3] | speed of sound [m/s] | viscosity [mPa·s]
293.15 K | 1069.9 | 1220 | 0.623
298.15 K | 1063.33 | 1198 | 0.584
303.15 K | 1056.71 | 1177 | 0.549
308.15 K | 1050.07 | 1155 | 0.517
313.15 K | 1043.39 | 1134 | 0.488

CC1CCCCC1 [methylcyclohexane]
[1]
Conditions | speed of sound [m/s] | viscosity [mPa·s]
293.15 K | 1237 | 0.729
298.15 K | 1215 | 0.681
303.15 K | 1193 | 0.637
308.15 K | 1172 | 0.598
313.15 K | 1150 | 0.562

CC1CCCCC1 [methylcyclohexane] + CCOC(=O)OCC
[2], x2 = 0
Conditions | speed of sound [m/s] | viscosity [mPa·s]
293.15 K | 1237 | 0.729
298.15 K | 1215 | 0.681
303.15 K | 1193 | 0.637
308.15 K | 1172 | 0.598
313.15 K | 1150 | 0.562

Reference: the NIST ThermoML archive (doi:10.1021/je049895b)
